Assay results as given in article PMC13252604, “First Generation Proteolysis Targeting Chimeras (PROTACs) for the Treatment of Progeria” (Advanced Science, 2026).

What was measured:
Lmna^G609G/G609G mice = experiment: In vivo treatment of progeroid Lmna^G609G/G609G mice; set-up: species or system mouse
Experimental: Weight was monitored during this time and at the end of the period mice were sacrificed and tissue was harvested to determine if PROTAC administration induced a decrease in the levels of progerin in vivo.
UHPLC with an oven temperature of 31.5 °C. The mass spectrometer ion optics were set in the multiple reaction monitoring mode and the transition selected for quantification […]
For in vivo treatment, compound 2 was administrated at a concentration of 25 mg/kg diluted in sterile corn oil (Sigma-Aldrich) intraperitoneally three times per week starting at the age of 6 weeks. The same quantity of corn oil was injected to control […]
LmnaG609G/G609G and Lmna+/+ mice. […]
stress in mice. The weight of each mouse was registered 2 to 3 times per week during the duration of the treatment.
After 7 weeks of treatment, mice were euthanized by CO2 inhalation. Immediately after sacrifice, tissues were harvested, frozen in dry ice, and kept at -80 °C until use. For immunoblot analysis, a portion of the corresponding tissue was homogenized, and the protein concentration was determined. Samples containing equivalent amounts of total protein were then subjected to polyacrylamide gel electrophoresis and analyzed as […]

[1] = Parallel artificial membrane permeability assay (PAMPA); format: in vitro ADME; details: read-out: P, permeability
Experimental: Pharmacokinetic properties, including solubility and membrane permeability, are critical in drug discovery but can pose challenges in PROTAC development […] The calculated logarithm of the partition coefficient between n‐octanol and water (clogP), determined using ACDLabs Percepta Software, indicated an acceptable lipophilicity for PROTAC 2 (clogP = 3.94), aligning with Lipinski's “rule of 5” (clogP<5). […] Compound permeability was assessed using the parallel artificial membrane permeability assay (PAMPA), which measures the ability of compounds to diffuse through a lipid‐infused artificial membrane. […] The cellular uptake of compound 2 was further confirmed by fluorescence microscopy, leveraging the intrinsic fluorescence of pomalidomide‐bearing derivatives (Figure S4).

[2] = tested on: HGADFN167 Lmna^G608G/G608G fibroblasts; experiment: Immunoblot and immunocytofluorescence analysis in human progeroid cells (Ki‐67, nuclei, pH2AX, H3K9Me3); format: cell-based; details: HGADFN167, 5 µM, 20 days
Text: FIGURE 6 (A) Representative cropped immunoblots and progerin quantification in human Lmna^G608G/G608G fibroblasts. MW, molecular weight (in kDa) markers. […] (B) PROTAC 2 increases cell proliferation (upper panels) and decreases the number of misshapen nuclei (lower panels). White arrows highlight selected misshapen nuclei. (C) PROTAC 2 decreases senescence‐associated β‐galactosidase (SA‐βgal) activity, interleukin (IL) 6, p16 and p21 senescent markers. Bar graphs show mean±sem of 2 (SA‐βgal and p21) or 3 (IL‐6 and p16) independent experiments performed in triplicate. (D) PROTAC 2 decreases phosphorylated histone 2AX (pH2AX) and increases trimethylated histone 3 (H3K9Me3) levels. (E) PROTAC 2 increases the oxygen consumption rate (OCR), ATP production and the number of healthy mitochondria in human progeroid cells. Bar graphs show mean±sem of 2 independent experiments performed in duplicate. In all cases, HGADFN167 Lmna^G608G/G608G (G608G) or HGFDFN168 Lmna^+/+ (WT) fibroblasts, provided by the Progeria Research Foundation, were incubated with vehicle or 2 (5 µM) for 20 days. Data were analysed using one‐way ANOVA followed by Dunnett's post–hoc test vs vehicle (panel A) or vs G608G cells (panels B‐E). ^*, p < 0.05; ^**, p < 0.01; ^***, p < 0.001; ^****, p < 0.0001. Microscopy images are representative of 2 independent experiments and corresponding bar graphs show mean±sem of 4 fields from 2 independent experiments. […]
compound exposure. Then, cells were incubated with compound of interest or DMSO for the appropriate time and lysed with cold laemmli buffer (50 mM Tris-HCl pH 7.4, 150 mM NaCl, 1% Igepal) with a mixture of protease and phosphatase inhibitors (1 mM PMSF, 10 mM NaF, 0.3 mg/mL CalyculinA, 1 mM sodium orthovanadate, 10 mM β-glycerol-phosphate; all from Sigma-Aldrich and complete protease inhibitor cocktail, from Roche). Proteins were denatured at 95 ᵒC for 5 min and the lysates were immediately used or stored at -20 ᵒC until use. Samples were analysed by electrophoresis in polyacrylamide gels (All Kd SDS-PAGE, BioRad) and the proteins transferred to nitrocellulose membranes (GE Healthcare, Amersham). After 1 h of incubation in blocking buffer [20 mM Tris pH 7.6, 150 mM NaCl and 0.1% Tween-20 (TBS-T) with 5% of bovine serum albumin (BSA)], blots were incubated overnight at 4 ᵒC with the corresponding primary antibody: anti-phospho-histone 2AX (Ser139) (EMD Millipore, […]
GAPDH (Cell Signaling, 2118S, 1:5000) and anti-actin (Santa Cruz Biotechnology, sc-376248, 1:500) as antibodies for loading control. Then, membranes were washed (3x10 min) with TBS-T and incubated with the corresponding secondary antibody conjugated with peroxidase (Sigma- Aldrich) for 1 h at rt. […] The bands were quantified by densitometry using the […]

CC1(C)Oc2cc3oc(=O)ccc3cc2C[C@@H]1OC(=O)CCCCCNc1cccc2c1C(=O)N(C1CCC(=O)NC1=O)C2=O (stereo partly drawn) [compound 2]
apparent damage or stress in mice (Lmna^G609G/G609G mice; 25 mg/kg i.p. in corn oil three times per week): did not produce any apparent damage or stress in mice
body weight (Lmna^G609G/G609G mice; Lmna^G609G/G609G mice, 25 mg/kg i.p. three times per week, seven weeks): trend toward improved body weight
H3K9Me3 levels in vivo (Lmna^G609G/G609G mice; liver, Lmna^G609G/G609G mice, 25 mg/kg i.p. three times per week, 7 weeks): increased levels of H3K9Me3
progerin levels in vivo (Lmna^G609G/G609G mice; lung, Lmna^G609G/G609G mice, 25 mg/kg i.p. three times per week, 7 weeks): reduced levels of progerin
Papp [1]: 6.7 ×10⁻⁶ cm/s
H3K9Me3 levels [2]: significantly increased H3K9Me3 levels
cell proliferation (Ki‐67 expression) [2]: enhances cell proliferation
number of misshapen nuclei [2]: significantly reduced the number of misshapen nuclei
pH2AX levels [2]: reduced pH2AX levels to those observed in WT cells
